Data published in patent US10787651B2, “Bradyrhizobium monooxygenase and use thereof for preparation of chiral sulfoxide” (JIANGSU AOSAIKANG PHARMACEUTICAL CO., LTD., priority 2018, dated 2020).

Columns and labels:
purified BoTEMO enzyme = assay: Specific activity and ee of purified BoTEMO enzyme against a series of thioethers; assay type: biochemical, Bradyrhizobium oligotrophicum ECU1212; conditions: pH 9.0, 25° C.
Experimental: To 0.5 ml of potassium phosphate buffer (100 mmol/L, pH 9.0) was added purified BoTEMO enzyme (purified BoTEMO enzyme prepared in accordance with the method of Example 5). A thioether substrate dissolved in DMSO was added so that the final concentration of the thioether was 0.2-2 mmol/L and the final concentration of DMSO was 2% (v/v), and NADPH was added to a final concentration 0.2-2 mmol/L. At 25° C., the reaction was stirred at 1000 rpm under shaking. After completion of reaction, 0.6 ml of ethyl acetate was added for extraction. The extract was dried over anhydrous sodium sulfate. The organic clear liquid was taken up, and evaporated overnight to remove the solvent. Then, the residue was dissolved with 0.5 ml of isopropanol and analyzed for measuring the ee value of product.
The particular analysis conditions of conversion rate and ee value of product are as follows:
The analysis is carried out with a high performance liquid chromatograph (HPLC) under the conditions of: a chiral OD-H column ([…], 5 μm particle size, Daicel), a mobile phase of n-hexane:isopropanol=93:7, a flow rate of 1 ml/min, and UV detection at 254 nm; or an AS-H column (250 mm×4.6 mm, 5 μm particle size, Daicel), a mobile phase of n-hexane:isopropanol=55:45, a flow rate of 0.5 mL/min, and UV detection at 254 nm.
The activity of BoTEMO for catalyzing the asymmetrical oxidation of a series of thioether substrates to produce optically active sulfoxides was further determined by the method in accordance with Example.

[1] = Activity of recombinant BoTEMO by change of absorbance at 340 nm (NADPH); assay type: biochemical
Experimental: The activity of BoTEMO and glucose dehydrogenase was determined by measuring the change of absorbance at 340 nm with a spectrophotometer.
(§1) The activity of BoTEMO was determined as follows. To 1 ml of the reaction system (100 mmol/L Tris-HCl buffer, pH 9.0) was added 1 mmol/L thioanisole and 0.2 mmol/L NADPH. The mixture was kept at 30° C. for 2 min, and then an appropriate amount of crude enzyme solution prepared in accordance with Example 5 was added. The mixture was rapidly mixed to uniform, and measured for the change of absorbance at 340 nm. The specific activity of the crude enzyme solution was determined as 101 mU/ml.
(§2) The enzyme activity was calculated in accordance with the equation of: Enzyme Activity (U)=EW×V×10^3/(6220×1).
(§3) In the equation, EW represents the change of absorbance at 340 nm in 1 min; V represents the volume of the reaction mixture (in ml); 6220 represents the molar extinction coefficient of NADPH (in L/(mol·cm)); and 1 represents the optical path distance (in cm). Each unit of BoTEMO is defined as the enzyme amount required to catalyze the oxidation of 1 μmol NADPH per minute under the foregoing conditions. Each unit of glucose dehydrogenase is defined as the enzyme amount required to catalyze the reduction of 1 μmol NADP^+ per minute under the foregoing conditions.

[2] = Enzyme activity of BoTEMO-M1 and BoTEMO-M2 powders (method of Example 6); assay type: biochemical; conditions: lyophilized crude enzyme powders; for enzyme activity relative to BoTEMO: times that of BoTEMO
Experimental: as §1, §2, §3
Recombinant transformants were prepared from the foregoing two mutant genes of BoTEMO-M1 and BoTEMO-M2 in accordance with the method of Example 4. Resting cells and lyophilized crude enzyme powders were prepared in accordance with the method of Example 5. And further, the enzyme activities of BoTEMO-M1 and BoTEMO-M2 powders were measured in accordance with the method of measuring the enzyme activity of Example 6. The enzyme activities of BoTEMO-M1 and BoTEMO-M2 are 7.6 times that of BoTEMO (BoTEMO-M1) and 1.6 times (BoTEMO-M2), respectively. The activity against the lansoprazole thioether reaches 20 U/g (BoTEMO-M1) and 4.2 U/g (BoTEMO-M2).

| Molecule | Specific Activity (purified BoTEMO enzyme) | other results |
| --- | --- | --- |
| CSc1ccccc1 [compound 1] | +++ (“+++”: >100 U/g) |  |
| COc1ccc2[nH]c(SCc3ncc(C)c(OC)c3C)nc2c1 [compound 2] | ++ (“++”: 10 ~ 100 U/g) |  |
| COc1ccnc(CSc2nc3cc(-n4cccc4)ccc3[nH]2)c1C [compound 3] | ++ (“++”: 10 ~ 100 U/g) |  |
| CSc1ccc(C)cc1 [compound 4] | + (“+”: <10 U/g) |  |
| COc1ccc2[nH]c(SC)nc2c1 [compound 5] | + (“+”: <10 U/g) |  |
| COCCCOc1ccnc(CSc2nc3ccccc3[nH]2)c1C [compound 6] | + (“+”: <10 U/g) |  |
| COc1ccnc(CSc2nc3cc(OC(F)F)ccc3[nH]2)c1OC [compound 7] | + (“+”: <10 U/g) |  |
| Cc1c(OCC(F)(F)F)ccnc1CSc1nc2ccccc2[nH]1 [compound 8] | + (“+”: <10 U/g) |  |
| BoTEMO: Bradyrhizobium oligotrophicum ECU1212 Thioether Monooxygenase, amino acid sequence SEQ ID No. 2 (protein, Bradyrhizobium oligotrophicum ECU1212) MSTEHVDVLIVGAGLSGIAAAYHLQHKCPGKRFALLEGRGALGGTWDLFRYPGIRSDSDMYTLGYSFKPWTDPKAIADGPQILKYVQDTATENGIDRHIRFNHRVRRASWSSADARWTVEAERQTAQGTTETVSMTCGFLFMCSGYYRYEKGYLPDFKGMADFKGRIVHPQAWPADLDYAGKRVVVIGSGATAVTLVPAMAKTAAHVTMLQRSPTYVVSRPAQDALANKLREHLPAGLAYHLIRWRNVLFGMYFFQLSRRKPQRVKQLILGGVRAALGPDYDVATHFTPRYNPWDQRLCLVPDGDLFRTIREQRASVVTAGIDTFTERGLRLSDGRELEAEIVVTATGLVLQVLGGSEVVVDGRTVDFAKTLNYKGMMYSDVPNMAATLGYTNFSWTLKCDLTCEYVCRLLNYMDRHGYRQCVPHNDDTTVTPLPSLSFSSGYVQRSIADLPKQGSKRPWRLYQNYALDIVSLRFGKVDDGVMRYS |  | specific activity of the crude enzyme solution ([1]; 1 mmol/L thioanisole, 0.2 mmol/L NADPH, pH 9.0, 30° C.): 101 mU/ml; activity of lyophilized crude enzyme solution powders on thioanisole ([1]; lyophilized crude enzyme powders): 0.2 U/mg |
| BoTEMO-M2: BoTEMO mutant, Ser357Ile, Phe394Ala, SEQ ID No. 6 (protein, VARIANT) MSTEHVDVLIVGAGLSGIAAAYHLQHKCPGKRFALLEGRGALGGTWDLFRYPGIRSDSDMYTLGYSFKPWTDPKAIADGPQILKYVQDTATENGIDRHIRFNHRVRRASWSSADARWTVEAERQTAQGTTETVSMTCGFLFMCSGYYRYEKGYLPDFKGMADFKGRIVHPQAWPADLDYAGKRVVVIGSGATAVTLVPAMAKTAAHVTMLQRSPTYVVSRPAQDALANKLREHLPAGLAYHLIRWRNVLFGMYFFQLSRRKPQRVKQLILGGVRAALGPDYDVATHFTPRYNPWDQRLCLVPDGDLFRTIREQRASVVTAGIDTFTERGLRLSDGRELEAEIVVTATGLVLQVLGGIEVVVDGRTVDFAKTLNYKGMMYSDVPNMAATLGYTNASWTLKCDLTCEYVCRLLNYMDRHGYRQCVPHNDDTTVTPLPSLSFSSGYVQRSIADLPKQGSKRPWRLYQNYALDIVSLRFGKVDDGVMRYS |  | activity against the lansoprazole thioether [2]: 4.2 U/g; enzyme activity relative to BoTEMO [2]: 1.6 times |
| BoTEMO-M1: BoTEMO mutant, Asp295Cys, Ser395Leu, Trp396Ala, SEQ ID No. 4 (protein, VARIANT) MSTEHVDVLIVGAGLSGIAAAYHLQHKCPGKRFALLEGRGALGGTWDLFRYPGIRSDSDMYTLGYSFKPWTDPKAIADGPQILKYVQDTATENGIDRHIRFNHRVRRASWSSADARWTVEAERQTAQGTTETVSMTCGFLFMCSGYYRYEKGYLPDFKGMADFKGRIVHPQAWPADLDYAGKRVVVIGSGATAVTLVPAMAKTAAHVTMLQRSPTYVVSRPAQDALANKLREHLPAGLAYHLIRWRNVLFGMYFFQLSRRKPQRVKQLILGGVRAALGPDYDVATHFTPRYNPWCQRLCLVPDGDLFRTIREQRASVVTAGIDTFTERGLRLSDGRELEAEIVVTATGLVLQVLGGSEVVVDGRTVDFAKTLNYKGMMYSDVPNMAATLGYTNFLATLKCDLTCEYVCRLLNYMDRHGYRQCVPHNDDTTVTPLPSLSFSSGYVQRSIADLPKQGSKRPWRLYQNYALDIVSLRFGKVDDGVMRYS |  | activity against the lansoprazole thioether [2]: 20 U/g; enzyme activity relative to BoTEMO [2]: 7.6 times |
